Assay results taken from patent publication US11180462B2, “Microbiocidal oxadiazole derivatives” (SYNGENTA PARTICIPATIONS AG, priority 2015, dated 2021).

Key:
[1] = test system: Puccinia recondita f. Sp. Tritici; assay: Fungicidal activity against Puccinia recondita f. sp. tritici / wheat / leaf disc curative (brown rust); format: in vivo; conditions: foliar, 24 h, 200 ppm in the applied formulation, wheat leaf segments, curative (applied 1 day after inoculation), compared to untreated control leaf disks, read-out: disease control
Method in brief: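 % disease control vs untreated, scored 6–8 d post-application. Wheat cv. Kanzler segments, spore-inoculated, dark 19° C/75% RH; formulated cpd applied 1 d post-inoc; then 19° C, 75% RH, 12 h L/12 h D.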

[2] = test system: Puccinia recondita f. Sp. Tritici; assay: Fungicidal activity against Puccinia recondita f. sp. tritici / wheat / leaf disc preventative (brown rust); format: in vivo; conditions: foliar, 200 ppm in the applied formulation, wheat leaf segments, preventative, compared to untreated control leaf disks, read-out: disease control
Method in brief: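 200 ppm spray on wheat cv. Kanzler leaf segments; spore inoculation +1 day; 19° C., 75% rh, 12 h/12 h light cycle; single rating of % control vs untreated at 7 to 9 days.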

Phakopsora Pachyrhizi = assay: Fungicidal activity against Phakopsora pachyrhizi / soybean / leaf disc preventative (Asian soybean rust); format: in vivo; conditions: foliar, 200 ppm in the applied formulation, soybean leaf disks, compared to untreated control leaf disks, read-out: disease control
Method in brief: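 Scored 12 to 14 days post-application as percent control relative to untreated check discs, rust spores were sprayed under the disc one day after compound treatment. Incubation: 20°C, 75% rh, first 24–36 h in darkness, then 12 h daily light; discs kept on water agar.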

[3] = test system: Glomerella lagenarium (Colletotrichum lagenarium); assay: Fungicidal activity against Glomerella lagenarium (Colletotrichum lagenarium) liquid culture / cucumber / preventative (anthracnose); format: cell-based; conditions: Colletotrichum orbiculare; 20 ppm in the applied formulation; liquid culture (PDB), growth inhibition measured photometrically after 3 to 4 days; compared to untreated control; read-out: disease control
Method in brief: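 Percent activity against the untreated check was derived from photometric growth measurements made 2 to 7 days after conidia in potato dextrose broth were combined with compound at 20 ppm. Cultures were kept dark at 24 °C and 96% humidity.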

CCON(Cc1ccc(-c2noc(C(F)(F)F)n2)cc1)C(=O)COC [Compound 1.567, N-ethoxy-2-methoxy-N-[[4-[5-(trifluoromethyl)-1,2,4-oxadiazol-3-yl]phenyl]methyl]-acetamide]
≥ 80%: pest or weed control at 200 ppm [1] | pest or weed control at 200 ppm [2] | pest or weed control at 200 ppm (Phakopsora Pachyrhizi) | inhibition of growth at 20 ppm [3]

COCCN(Cc1ccc(-c2noc(C(F)(F)F)n2)cc1)C(=O)C1CC1F (stereo not shown) [Compound 1.358, 2-fluoro-N-(2-methoxyethyl)-N-[[4-[5-(trifIuoromethyl)-1,2,4-oxadiazol-3-yl]phenyl]methyl]-cyclopropane-carboxamide]
≥ 80%: pest or weed control at 200 ppm [1] | pest or weed control at 200 ppm [2] | pest or weed control at 200 ppm (Phakopsora Pachyrhizi) | inhibition of growth at 20 ppm [3]

CCC(C)C(=O)N(Cc1ccc(-c2noc(C(F)(F)F)n2)cc1)CC1CC1 (stereo not shown) [Compound 1.233, N-(cyclopropylmethyl)-2-methyl-N-[[4-[5-(trifluoromethyl)-1,2,4-oxadiazol-3-yl]phenyl]methyl]-butanamide]
≥ 80%: pest or weed control at 200 ppm [1] | pest or weed control at 200 ppm [2] | pest or weed control at 200 ppm (Phakopsora Pachyrhizi) | inhibition of growth at 20 ppm [3]

O=C(CCC(F)(F)F)N(Cc1ccc(-c2noc(C(F)(F)F)n2)cc1)C1CC1 [Compound 1.101, N-cyclopropyl-4,4,4-trifluoro-N-[[4-[5-(trifluoromethyl)-1,2,4-oxadiazol-3-yl]phenyl]methyl]-butanamide]
≥ 80%: pest or weed control at 200 ppm [1] | pest or weed control at 200 ppm [2] | pest or weed control at 200 ppm (Phakopsora Pachyrhizi) | inhibition of growth at 20 ppm [3]

C=C(C)C(=O)N(Cc1ccc(-c2noc(C(F)(F)F)n2)cc1)C(C)CC (stereo not shown) [Compound 1.390, 2-methyl-N-sec-butyl-N-[[4-[5-(trifluoromethyl)-1,2,4-oxadiazol-3-yl]phenyl]methyl]-prop-2-enamide]
≥ 80%: pest or weed control at 200 ppm [1] | pest or weed control at 200 ppm [2] | pest or weed control at 200 ppm (Phakopsora Pachyrhizi) | inhibition of growth at 20 ppm [3]

CC(C)CC(=O)N(Cc1ccc(-c2noc(C(F)(F)F)n2)cc1)C1CC1 [Compound 1.109, N-cyclopropyl-3-methyl-N-[[4-[5-(trifluoromethyl)-1,2,4-oxadiazol-3-yl]phenyl]methyl]-butanamide]
≥ 80%: pest or weed control at 200 ppm [1] | pest or weed control at 200 ppm [2] | pest or weed control at 200 ppm (Phakopsora Pachyrhizi) | inhibition of growth at 20 ppm [3]

CCNC(=O)N(Cc1ccc(-c2noc(C(F)(F)F)n2)cc1)C1CC1 [Compound 3.34, 1-cyclopropyl-3-ethyl-1-[[4-[5-(trifluoromethyl)-1,2,4-oxadiazol-3-yl]phenyl]methyl]urea]
≥ 80%: pest or weed control at 200 ppm [1] | pest or weed control at 200 ppm [2] | pest or weed control at 200 ppm (Phakopsora Pachyrhizi) | inhibition of growth at 20 ppm [3]

CON(Cc1ccc(-c2noc(C(F)(F)F)n2)cc1)C(=O)C1(C)CC1(Cl)Cl (stereo not shown) [Compound 1.32, 2,2-dichloro-N-methoxy-1-methyl-N-[[4-[5-(trifluoromethyl)-1,2,4-oxadiazol-3-yl]phenyl]methyl]-cyclopropane-carboxamide]
≥ 80%: pest or weed control at 200 ppm [1] | pest or weed control at 200 ppm [2] | pest or weed control at 200 ppm (Phakopsora Pachyrhizi) | inhibition of growth at 20 ppm [3]

COC(C)C(=O)N(Cc1ccc(-c2noc(C(F)(F)F)n2)cc1)C(C)C (stereo not shown) [Compound 1.685, N-isopropyl-2-methoxy-N-[[4-[5-(trifluoromethyl)-1,2,4-oxadiazol-3-yl]phenyl]methyl]-propanamide]
≥ 80%: pest or weed control at 200 ppm [1] | pest or weed control at 200 ppm [2] | pest or weed control at 200 ppm (Phakopsora Pachyrhizi) | inhibition of growth at 20 ppm [3]

CON(Cc1ccc(-c2noc(C(F)(F)F)n2)cc1)C(=O)C(C)(C)C [Compound 1.42, N-methoxy-2,2-dimethyl-N-[[4-[5-(trifluoromethyl)-1,2,4-oxadiazol-3-yl]phenyl]methyl]-propanamide]
≥ 80%: pest or weed control at 200 ppm [1] | pest or weed control at 200 ppm [2] | pest or weed control at 200 ppm (Phakopsora Pachyrhizi) | inhibition of growth at 20 ppm [3]

O=C(ON(Cc1ccc(-c2noc(C(F)(F)F)n2)cc1)C(=O)C1CCC1)C1CCC1 [Compound 1.762, [cyclobutane-carbonyl-[[4-[5-(trifluoromethyl)-1,2,4-oxadiazol-3-yl]phenyl]methyl]-amino] cyclobutane-carboxylate]
≥ 80%: pest or weed control at 200 ppm [1] | pest or weed control at 200 ppm [2] | pest or weed control at 200 ppm (Phakopsora Pachyrhizi) | inhibition of growth at 20 ppm [3]

C=CCN(Cc1ccc(-c2noc(C(F)(F)F)n2)cc1)C(=O)C(C)CC (stereo not shown) [Compound 1.486, N-allyl-2-methyl-N-[[4-[5-(trifluoromethyl)-1,2,4-oxadiazol-3-yl]phenyl]methyl]-butanamide]
≥ 80%: pest or weed control at 200 ppm [1] | pest or weed control at 200 ppm [2] | pest or weed control at 200 ppm (Phakopsora Pachyrhizi) | inhibition of growth at 20 ppm [3]

CCOCC(=O)N(CCOC)Cc1ccc(-c2noc(C(F)(F)F)n2)cc1 [Compound 1.339, 2-ethoxy-N-(2-methoxyethyl)-N-[[4-[5-(trifluoromethyl)-1,2,4-oxadiazol-3-yl]phenyl]methyl]-acetamide]
≥ 80%: pest or weed control at 200 ppm [1] | pest or weed control at 200 ppm [2] | pest or weed control at 200 ppm (Phakopsora Pachyrhizi) | inhibition of growth at 20 ppm [3]

COCCC(=O)N(CCOC)Cc1ccc(-c2noc(C(F)(F)F)n2)cc1 [Compound 1.335, 3-methoxy-N-(2-methoxyethyl)-N-[[4-[5-(trifluoromethyl)-1,2,4-oxadiazol-3-yl]phenyl]methyl]-propanamide]
≥ 80%: pest or weed control at 200 ppm [1] | pest or weed control at 200 ppm [2] | pest or weed control at 200 ppm (Phakopsora Pachyrhizi) | inhibition of growth at 20 ppm [3]

CC1(C(=O)N(Cc2ccc(-c3noc(C(F)(F)F)n3)cc2)CC2CC2)COC1 [Compound 1.235, N-(cyclopropylmethyl)-3-methyl-N-[[4-[5-(trifluoromethyl)-1,2,4-oxadiazol-3-yl]phenyl]methyl]-oxetane-3-carboxamide]
≥ 80%: pest or weed control at 200 ppm [1] | pest or weed control at 200 ppm [2] | pest or weed control at 200 ppm (Phakopsora Pachyrhizi) | inhibition of growth at 20 ppm [3]

C=C(C)C(=O)N(Cc1ccc(-c2noc(C(F)(F)F)n2)cc1)CC1CC1 [Compound 1.229, N-(cyclopropylmethyl)-2-methyl-N-[[4-[5-(trifluoromethyl)-1,2,4-oxadiazol-3-yl]phenyl]methyl]-prop-2-enamide]
≥ 80%: pest or weed control at 200 ppm [1] | pest or weed control at 200 ppm [2] | pest or weed control at 200 ppm (Phakopsora Pachyrhizi) | inhibition of growth at 20 ppm [3]

COCCCC(=O)N(CCOC)Cc1ccc(-c2noc(C(F)(F)F)n2)cc1 [Compound 1.365, 4-methoxy-N-(2-methoxyethyl)-N-[[4-[5-(trifluoromethyl)-1,2,4-oxadiazol-3-yl]phenyl]methyl]-butanamide]
≥ 80%: pest or weed control at 200 ppm [1] | pest or weed control at 200 ppm [2] | pest or weed control at 200 ppm (Phakopsora Pachyrhizi) | inhibition of growth at 20 ppm [3]

COCCN(Cc1ccc(-c2noc(C(F)(F)F)n2)cc1)C(=O)C1OCCO1 [Compound 1.360, N-(2-methoxyethyl)-N-[[4-[5-(trifluoromethyl)-1,2,4-oxadiazol-3-yl]phenyl]methyl]-1,3-dioxolane-2-carboxamide]
≥ 80%: pest or weed control at 200 ppm [1] | pest or weed control at 200 ppm [2] | pest or weed control at 200 ppm (Phakopsora Pachyrhizi) | inhibition of growth at 20 ppm [3]

CCC(=O)N(CC)Cc1ccc(-c2noc(C(F)(F)F)n2)cc1 [Compound 1.497, N-ethyl-N-[[4-[5-(trifluoromethyl)-1,2,4-oxadiazol-3-yl]phenyl]methyl]-propanamide]
≥ 80%: pest or weed control at 200 ppm [1] | pest or weed control at 200 ppm [2] | pest or weed control at 200 ppm (Phakopsora Pachyrhizi) | inhibition of growth at 20 ppm [3]

CCC(COC)C(=O)N(Cc1ccc(-c2noc(C(F)(F)F)n2)cc1)C1COC1 (stereo not shown) [Compound 1.745, 2-(methoxymethyl)-N-(oxetan-3-yl)-N-[[4-[5-(trifluoromethyl)-1,2,4-oxadiazol-3-yl]phenyl]methyl]-butanamide]
≥ 80%: pest or weed control at 200 ppm [1] | pest or weed control at 200 ppm [2] | pest or weed control at 200 ppm (Phakopsora Pachyrhizi) | inhibition of growth at 20 ppm [3]

CON(Cc1ccc(-c2noc(C(F)(F)F)n2)cc1)C(=O)C1CC1(F)F (stereo not shown) [Compound 1.15, 2,2-difluoro-N-methoxy-N-[[4-[5-(trifluoromethyl)-1,2,4-oxadiazol-3-yl]phenyl]methyl]-cyclopropane-carboxamide]
≥ 80%: pest or weed control at 200 ppm [1] | pest or weed control at 200 ppm [2] | pest or weed control at 200 ppm (Phakopsora Pachyrhizi) | inhibition of growth at 20 ppm [3]

C#CCN(Cc1ccc(-c2noc(C(F)(F)F)n2)cc1)C(=O)C1CC1(F)F (stereo not shown) [Compound 1.157, 2,2-difluoro-N-prop-2-ynyl-N-[[4-[5-(trifluoromethyl)-1,2,4-oxadiazol-3-yl]phenyl]methyl]-cyclopropane-carboxamide]
≥ 80%: pest or weed control at 200 ppm [1] | pest or weed control at 200 ppm [2] | pest or weed control at 200 ppm (Phakopsora Pachyrhizi) | inhibition of growth at 20 ppm [3]
